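Step 1: Grow cells in 96-well plates. Step 2: Expose to compound for 48 hours at 5 concentrations. Step 3: Interpolate endpoints linearly; if unreached, use highest concentration. At the TGI there is no net growth.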
Assays:
Experiment in all cases: NCI anticancer screen, dose series, 48 h
786-0 renal = test system: 786-0 renal
A498 renal = test system: A498 renal
A549 NSCLC = test system: A549 NSCLC
ACHN renal = test system: ACHN renal
BT-549 breast = test system: BT-549 breast
CCRF-CEM leukemia = test system: CCRF-CEM leukemia
COLO 205 colon = test system: COLO 205 colon
DU-145 prostate = test system: DU-145 prostate
EKVX NSCLC = test system: EKVX NSCLC
HCC-2998 colon = test system: HCC-2998 colon
HCT-116 colon = test system: HCT-116 colon
HCT-15 colon = test system: HCT-15 colon
HL-60(TB) leukemia = test system: HL-60(TB) leukemia
HOP-62 NSCLC = test system: HOP-62 NSCLC
HOP-92 NSCLC = test system: HOP-92 NSCLC
HS 578T breast = test system: HS 578T breast
HT29 colon = test system: HT29 colon
IGROV1 ovarian = test system: IGROV1 ovarian
K-562 leukemia = test system: K-562 leukemia
KM12 colon = test system: KM12 colon
LOX IMVI melanoma = test system: LOX IMVI melanoma
M14 melanoma = test system: M14 melanoma
MALME-3M melanoma = test system: MALME-3M melanoma
MCF7 breast = test system: MCF7 breast
MDA-MB-231 breast = test system: MDA-MB-231 breast
MDA-MB-435 = test system: MDA-MB-435
MDA-N = test system: MDA-N
MOLT-4 leukemia = test system: MOLT-4 leukemia
NCI-H226 lung = test system: NCI-H226 lung
NCI-H23 lung = test system: NCI-H23 lung
NCI-H460 lung = test system: NCI-H460 lung
NCI-H522 lung = test system: NCI-H522 lung
NCI/ADR-RES ovarian = test system: NCI/ADR-RES ovarian
OVCAR-3 ovarian = test system: OVCAR-3 ovarian
OVCAR-4 ovarian = test system: OVCAR-4 ovarian
OVCAR-5 ovarian = test system: OVCAR-5 ovarian
OVCAR-8 ovarian = test system: OVCAR-8 ovarian
PC-3 prostate = test system: PC-3 prostate
RPMI-8226 leukemia = test system: RPMI-8226 leukemia
RXF 393 renal = test system: RXF 393 renal
SF-268 CNS = test system: SF-268 CNS
SF-295 CNS = test system: SF-295 CNS
SF-539 CNS = test system: SF-539 CNS
SK-MEL-2 melanoma = test system: SK-MEL-2 melanoma
SK-MEL-28 melanoma = test system: SK-MEL-28 melanoma
SK-MEL-5 melanoma = test system: SK-MEL-5 melanoma
SK-OV-3 ovarian = test system: SK-OV-3 ovarian
SN12C renal = test system: SN12C renal
SNB-19 CNS = test system: SNB-19 CNS
SNB-75 CNS = test system: SNB-75 CNS
SR leukemia = test system: SR leukemia
SW-620 colon = test system: SW-620 colon
T-47D breast = test system: T-47D breast
TK-10 renal = test system: TK-10 renal
U251 CNS = test system: U251 CNS
UACC-257 melanoma = test system: UACC-257 melanoma
UACC-62 melanoma = test system: UACC-62 melanoma
UO-31 renal = test system: UO-31 renal

Structure (SMILES): COc1cc(/C=N/NC2=NCCCCN2)ccc1O
- TGI (786-0 renal): > 100 µM
- TGI (A498 renal): > 100 µM
- TGI (A549 NSCLC): > 100 µM
- TGI (ACHN renal): > 100 µM
- TGI (BT-549 breast): > 100 µM
- TGI (CCRF-CEM leukemia): > 100 µM
- TGI (COLO 205 colon): > 100 µM
- TGI (DU-145 prostate): > 100 µM
- TGI (EKVX NSCLC): > 100 µM
- TGI (HCC-2998 colon): > 100 µM
- TGI (HCT-116 colon): > 100 µM
- TGI (HCT-15 colon): > 100 µM
- TGI (HL-60(TB) leukemia): > 100 µM
- TGI (HOP-62 NSCLC): > 100 µM
- TGI (HOP-92 NSCLC): > 100 µM
- TGI (HS 578T breast): > 100 µM
- TGI (HT29 colon): > 100 µM
- TGI (IGROV1 ovarian): > 100 µM
- TGI (K-562 leukemia): > 100 µM
- TGI (KM12 colon): > 100 µM
- TGI (LOX IMVI melanoma): > 100 µM
- TGI (M14 melanoma): > 100 µM
- TGI (MALME-3M melanoma): > 100 µM
- TGI (MCF7 breast): > 100 µM
- TGI (MDA-MB-231 breast): > 100 µM
- TGI (MDA-MB-435): > 100 µM
- TGI (MDA-N): > 100 µM
- TGI (MOLT-4 leukemia): > 100 µM
- TGI (NCI-H226 lung): > 100 µM
- TGI (NCI-H23 lung): > 100 µM
- TGI (NCI-H460 lung): > 100 µM
- TGI (NCI-H522 lung): > 100 µM
- TGI (NCI/ADR-RES ovarian): > 100 µM
- TGI (OVCAR-3 ovarian): > 100 µM
- TGI (OVCAR-4 ovarian): > 100 µM
- TGI (OVCAR-5 ovarian): > 100 µM
- TGI (OVCAR-8 ovarian): > 100 µM
- TGI (PC-3 prostate): > 100 µM
- TGI (RPMI-8226 leukemia): > 100 µM
- TGI (RXF 393 renal): > 100 µM
- TGI (SF-268 CNS): > 100 µM
- TGI (SF-295 CNS): > 100 µM
- TGI (SF-539 CNS): > 100 µM
- TGI (SK-MEL-2 melanoma): > 100 µM
- TGI (SK-MEL-28 melanoma): > 100 µM
- TGI (SK-MEL-5 melanoma): > 100 µM
- TGI (SK-OV-3 ovarian): > 100 µM
- TGI (SN12C renal): > 100 µM
- TGI (SNB-19 CNS): > 100 µM
- TGI (SNB-75 CNS): > 100 µM
- TGI (SR leukemia): > 100 µM
- TGI (SW-620 colon): > 100 µM
- TGI (T-47D breast): > 100 µM
- TGI (TK-10 renal): > 100 µM
- TGI (U251 CNS): > 100 µM
- TGI (UACC-257 melanoma): > 100 µM
- TGI (UACC-62 melanoma): > 100 µM
- TGI (UO-31 renal): > 100 µM

Structure (SMILES): Cc1nnc(Sc2nc(C#N)c(C#N)nc2Sc2nnc(C)s2)s1
- TGI (786-0 renal): 28.6 µM
- TGI (A498 renal): 53.3 µM
- TGI (A549 NSCLC): 56.2 µM
- TGI (ACHN renal): 8.08 µM
- TGI (BT-549 breast): 27.7 µM
- TGI (CCRF-CEM leukemia): 5.15 µM
- TGI (COLO 205 colon): > 53.3 µM
- TGI (DU-145 prostate): 36.6 µM
- TGI (EKVX NSCLC): > 73.6 µM
- TGI (HCC-2998 colon): 51.8 µM
- TGI (HCT-116 colon): > 64.3 µM
- TGI (HCT-15 colon): 7.42 µM
- TGI (HL-60(TB) leukemia): 8.83 µM
- TGI (HOP-62 NSCLC): > 74.3 µM
- TGI (HOP-92 NSCLC): 7.65 µM
- TGI (HS 578T breast): 99.4 µM
- TGI (HT29 colon): > 23.8 µM
- TGI (IGROV1 ovarian): 21.3 µM
- TGI (K-562 leukemia): 12.6 µM
- TGI (KM12 colon): > 72 µM
- TGI (LOX IMVI melanoma): 9.18 µM
- TGI (M14 melanoma): 62.9 µM
- TGI (MALME-3M melanoma): 4.48 µM
- TGI (MCF7 breast): 25.3 µM
- TGI (MDA-MB-231 breast): 37.9 µM
- TGI (MDA-MB-435): > 84.7 µM
- TGI (MDA-N): 49.7 µM
- TGI (MOLT-4 leukemia): 5.47 µM
- TGI (NCI-H226 lung): 64.1 µM
- TGI (NCI-H23 lung): 49.8 µM
- TGI (NCI-H460 lung): > 76.1 µM
- TGI (NCI/ADR-RES ovarian): 51 µM
- TGI (OVCAR-3 ovarian): 25.3 µM
- TGI (OVCAR-4 ovarian): > 80.1 µM
- TGI (OVCAR-5 ovarian): 46.5 µM
- TGI (OVCAR-8 ovarian): 8.34 µM
- TGI (PC-3 prostate): 30.7 µM
- TGI (RXF 393 renal): 6 µM
- TGI (SF-268 CNS): 73.2 µM
- TGI (SF-295 CNS): 73.8 µM
- TGI (SF-539 CNS): > 60.1 µM
- TGI (SK-MEL-2 melanoma): 44.7 µM
- TGI (SK-MEL-28 melanoma): 47 µM
- TGI (SK-MEL-5 melanoma): 46.2 µM
- TGI (SK-OV-3 ovarian): 34.2 µM
- TGI (SN12C renal): 26.4 µM
- TGI (SNB-19 CNS): 54.6 µM
- TGI (SNB-75 CNS): > 82.3 µM
- TGI (SR leukemia): > 26.4 µM
- TGI (T-47D breast): 12.9 µM
- TGI (TK-10 renal): 41.4 µM
- TGI (U251 CNS): 47.5 µM
- TGI (UACC-257 melanoma): 62 µM
- TGI (UACC-62 melanoma): 34.9 µM
- TGI (UO-31 renal): 23.9 µM
